We go through 7 compounds from patent US20050239899A1, “Beta-secretase inhibitors” (priority 2002, published 2005).

The target in one test is T1, rhBACE (Homo sapiens, UniProt P56817).
T1 construct: purchased R&D systems 931-AS
Description: Fluorescence BACE assay. The class given is biochemical. The conditions noted are these: EDANS/Dabcyl peptide substrate, pH 5, 2 hours at 37 C. As to the method: The inhibitory activity of the compounds of the invention was shown in an in vitro assay, namely a fluorescence BACE assay.
The assay was set up in triplicate wells of 96 well black plate. rhBACE was diluted to 1 unit/well in […] (PBS +0.5% Triton-X 100, pH 5). BACE enzyme (obtained from R&D systems (ca.No. 931-AS), reference: Vasser et al., 1999, Science 286, 735-741) was incubated with various concentrations of inhibitor compound (10 nM to 500 µM) for 5 min; Reaction was started by adding peptide substrate (obtained from BACHEM (cat. No. M-2470), reference: Ermolieff et al., Biochemistry 39 (2000) 12450-56) with EDANS/Dabcyl labels. After incubation for 2 hours at 37 C the results were read in fluoroplate reader at 355 nm/486 nm.

Another test concerns cells. Description: cellular assay (activity in cells). In kind it is cell-based. The text has this:
As combined pharmacophore, for example, a combination of common pharmacophore for aspartyl proteases and a surface-based (surf2lead®) pharmacophore of the crystallized beta-secretase:OM922 complex can be used. For the common pharmacophore of the aspartyl proteases the active center was employed for generation of the pharmacophore. For the surf2lead approach the surface of the active center of the beta-secretase: OM922 complex crystallized with inhibitor was used for generation of the pharmacophore. A query for PHACIR screening was generated from a combination of the two pharmacophores. The compounds of the focused library identified by virtual screening then can be subjected to an in vitro assay, e.g. a fluorescence BACE assay, or a cellular assay in order to determine its possible inhibitory action.

Structures are written as SMILES.

The term IC50 denotes the concentration needed to halve the response being measured. A high value points to weaker potency in that assay.

T1 sequence (P56817 46-501): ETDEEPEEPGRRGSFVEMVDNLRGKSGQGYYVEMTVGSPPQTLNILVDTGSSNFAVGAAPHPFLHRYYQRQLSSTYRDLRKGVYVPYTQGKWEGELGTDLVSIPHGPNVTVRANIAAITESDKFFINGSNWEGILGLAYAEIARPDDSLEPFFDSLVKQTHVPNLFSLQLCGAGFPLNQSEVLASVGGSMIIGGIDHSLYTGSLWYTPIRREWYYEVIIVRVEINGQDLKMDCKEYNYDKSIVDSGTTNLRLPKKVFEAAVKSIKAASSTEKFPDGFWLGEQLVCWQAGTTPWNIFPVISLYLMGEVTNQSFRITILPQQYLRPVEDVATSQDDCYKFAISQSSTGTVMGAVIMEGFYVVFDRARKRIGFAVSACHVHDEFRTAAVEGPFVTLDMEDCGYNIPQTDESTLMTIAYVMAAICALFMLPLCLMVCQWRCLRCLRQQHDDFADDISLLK

In turn, `O=C(Nc1cc(-c2ccc(Cl)cc2)nn1-c1ccc(I)cc1)C1CCC1` [ID1] showed a half-maximal inhibitory concentration (IC50) against rhBACE of 45 µM.
The same measure, in the same setting: then `Oc1c(Cl)cc(Cl)cc1/C=N/Nc1c(Cl)cncc1Cl` [ID2], with 29 µM.
Compound `C=CCn1c(SCc2ccc(Cl)cc2)nc2sc3c(c2c1=N)CCCC3` [ID3] had a 50% inhibitory concentration (IC50) against rhBACE of 10 µM. In addition, the “activity in cells / cell permeability” value in the test on cells is “especially cell-permeable active compounds”.
Turning to `C/C(=N\OC(=O)c1c(-c2c(Cl)cccc2Cl)noc1C)c1ccccc1O` [ID4], the concentration for half-maximal inhibition (IC50) against rhBACE fell in the range of 140 to 170 µM.
On the same count and under the same terms, for `Oc1c(Cl)cc(Cl)cc1/C=N/Nc1ncnc2sc3c(c12)CCCC3` [ID5] the value was 53 µM; for `O=[N+]([O-])c1cc(C(F)(F)F)cc([N+](=O)[O-])c1N/N=C/c1cc(Cl)cc(Cl)c1O` [ID6], 39.3 µM.
In the case of `C/C(=N\Nc1ccccc1)c1cc(Cl)cc(Cl)c1O` [ID7], at rhBACE, the concentration for half-maximal inhibition (IC50) came to 14.4 µM. For the same compound, in the test on cells, the “activity in cells / cell permeability” value is on record as “especially cell-permeable active compounds”.
